Target: CDK2/Cyclin E1 (Homo sapiens (Human), UniProt P24941)
Assay: CDK2/Cyclin E1 HTRF Enzyme Activity Assay
Assay type: biochemical
Conditions: 1 mM ATP
Method: Example A. CDK2/Cyclin E1 HTRF Enzyme Activity Assay
CDK2/Cyclin E1 enzyme activity assays utilize full-length human CDK2 co-expressed as N-terminal GST-tagged protein with FLAG-Cyclin E1 in a baculovirus expression system (Carna Product Number 04-165). Assays are conducted in white 384-well polystyrene plates in a final reaction volume of 8 μL. CDK2/Cyclin E1 (0.25 nM) is incubated with compounds (40 nL serially diluted in DMSO) in the presence of ATP (50 μM or 1 mM) and 50 nM ULight™-labeled eIF4E-binding protein 1 (THR37/46) peptide (PerkinElmer) in assay buffer (containing 50 mM HEPES pH 7.5, 1 mM EGTA, 10 mM MgCl2, 2 mM DTT, 0.05 mg/ml BSA, and 0.01% Tween 20) for 60 minutes at room temperature. The reactions are stopped by the addition of EDTA and Europium-labeled anti-phospho-4E-BP 1 antibody (PerkinElmer), for a final concentration of 15 mM and 1.5 nM, respectively. HTRF signals are read after 1 hour at room temperature on a PHERAstar FS plate reader (BMG Labtech). Data is analyzed with IDBS XLFit and GraphPad Prism 5.0 software using a three or four parameter dose response curve to determine IC50 for each compound.

Compound	IC50
CCC(C(F)F)N1C(=O)C(C)(C)Cc2cnc(NC3CCN(S(C)(=O)=O)CC3)nc21 (racemic) [Example 4, 8-(1,1-difluorobutan-2-yl)-6,6-dimethyl-2-((1-(methylsulfonyl)piperidin-4-yl)amino)-5,8-dihydropyrido[2,3-d]pyrimidin-7(6H)-one]	10 to 100 nM
CC1(C)Cc2cnc(NC3CCN(S(C)(=O)=O)CC3)nc2N(C2CCOC2)C1=O (racemic) [Example 6, 6,6-dimethyl-2-((1-(methylsulfonyl)piperidin-4-yl)amino)-8-(tetrahydrofuran-3-yl)-5,8-dihydropyrido[2,3-d]pyrimidin-7(6H)-one]	100 to 500 nM
CC1(C)Cc2cnc(Nc3ccc(S(N)(=O)=O)cc3)nc2N(C2CCCC2)C1=O [Example 1, 4-((8-cyclopentyl-6,6-dimethyl-7-oxo-5,6,7,8-tetrahydropyrido[2,3-d]pyrimidin-2-yl)amino)benzenesulfonamide]	≤ 10 nM
CC1(C)Cc2cnc(NC3CCN(S(C)(=O)=O)CC3)nc2N(C2CCCC2)C1=O [Example 2, 8-cyclopentyl-6,6-dimethyl-2-((1-(methylsulfonyl)piperidin-4-yl)amino)-5,8-dihydropyrido[2,3-d]pyrimidin-7(6H)-one]	≤ 10 nM
CC1(C)Cc2cnc(NC3CCN(S(C)(=O)=O)CC3)nc2N(c2ccccc2)C1=O [Example 3, 6,6-dimethyl-2-((1-(methylsulfonyl)piperidin-4-yl)amino)-8-phenyl-5,8-dihydropyrido[2,3-d]pyrimidin-7(6H)-one]	100 to 500 nM
Cn1nccc1CN1C(=O)C(C)(C)Cc2cnc(NC3CCN(S(C)(=O)=O)CC3)nc21 [Example 5, 6,6-dimethyl-8-((1-methyl-1H-pyrazol-5-yl)methyl)-2-((1-(methylsulfonyl)piperidin-4-yl)amino)-5,8-dihydropyrido[2,3-d]pyrimidin-7(6H)-one]	100 to 500 nM
